Source: patent publication US9040457B2, “Phenylamidines having a high fungicidal activity and use thereof” (ISAGRO S.P.A., priority 2010, dated 2015)

Key:
Format in all cases: in vivo
wheat plants [1] = experiment: Phytotoxicity (percentage of leaf necrosis) on wheat plants, Puccinia recondita test; details: 0 = completely healthy plant, 100 = completely necrotized plant
Method: (§1) Leaves of wheat plants of the Salgemma variety, grown in pots in a conditioned environment kept at 20° C. and 70% of relative humidity (R.H.), were treated by spraying on both sides of the leaves with the compounds under examination, dispersed in hydroacetonic solutions at 20% by volume of acetone.
(§2) At the same time, the phytotoxicity was evaluated (percentage of leaf necrosis) induced on the wheat plants by the application of the products: in this case, the evaluation scale varies from 0 (completely healthy plant) to 100 (completely necrotized plant).

Erysiphe graminis = experiment: Fungicidal activity in preventive application (5 days) against Erysiphe graminis on wheat; details: scale 100 = healthy plant, 0 = completely infected plant; for Activity P5, NT: parts developed during the test (NT); for Activity P5, T: parts treated directly (T)
Method: Determination of the Fungicidal Activity in Preventive Application (5 Days) Against Erysiphe graminis on Wheat
as §1
After remaining 5 days in a conditioned environment, the plants were infected under dry conditions by shaking over them, in order to distribute the inoculum, plants previously infected by Erysiphe graminis.
The plants were then maintained in the same cell, in a humidity-saturated environment and at a temperature ranging from 18 to 24° C. for 12 days.
(§3) At the end of this period, the external symptoms of the pathogen appeared and it was therefore possible to proceed with the evaluation of the intensity of the infection, on both the parts treated directly with the products (T), and also on the parts which had developed during the test (NT), by means of a visible percentage evaluation scale of the area of affected leafs; the scale comprises, as extremes, the value 100 (healthy plant) and the value 0 (completely infected plant).

Puccinia recondita = experiment: Fungicidal activity in preventive application (5 days) against Puccinia recondita on wheat; details: scale 100 = healthy plant, 0 = completely infected plant; for Activity P5, NT: parts developed during the test (NT); for Activity P5, T: parts treated directly (T)
Method: Determination of the Fungicidal Activity in Preventive Application (5 Days) Against Puccinia recondita on Wheat
as §1
After remaining 5 days in a conditioned environment, the plants were sprayed on both sides of the leafs with an aqueous suspension of conidia of Puccinia recondita (2 mg of inoculum per 1 ml of solution for infection).
After being sprayed, the plants were kept in a humidity-saturated environment at a temperature ranging from 18 to 24° C. for the incubation period of the fungus (1 day).
After this period, the plants were put in a greenhouse with R.H. of 70% and at a temperature of 18-24° C. for 14 days.
as §3

[2] = tested on: cereals, cucumbers, tomatoes and other important crops; experiment: Phytotoxicity of WO 00/46184 compounds on crops (background statement); details: at the doses which allow a good fungicidal activity
wheat plants [3] = experiment: Phytotoxicity (percentage of leaf necrosis) on wheat plants, Erysiphe graminis test; details: 0 = completely healthy plant, 100 = completely necrotized plant
Method: as §1, §2

phytopathogenic fungi = experiment: Fungicidal activity of WO 00/46184 compound (background statement); details: only exerted satisfactorily in excessively high dosages

## CCN(C)C=Nc1cc(C)c(Oc2cccc(C(F)(F)F)c2)cc1C [CR-3, N-ethyl-N-methyl-N′-[4-(3-trifluoromethylphenoxy)-2,5-xylyl]formamidine]
Wheat plants [1]; 30 ppm
  Phytotoxicity % N.F.: 21%
Wheat plants [1]; 125 ppm
  Phytotoxicity % N.F.: 33%
Erysiphe graminis; 30 ppm
  Activity P5, NT: 85%
  Activity P5, T: 95%
Erysiphe graminis; 125 ppm
  Activity P5, NT: 96%
  Activity P5, T: 100%
Puccinia recondita; 30 ppm
  Activity P5, NT: 85%
  Activity P5, T: 95%
Puccinia recondita; 125 ppm
  Activity P5, NT: 100%
  Activity P5, T: 100%
[2]
  leaf necrosis on crops: marked leaf necrosis
Wheat plants [3]; 30 ppm
  Phytotoxicity % N.F.: 20%
Wheat plants [3]; 125 ppm
  Phytotoxicity % N.F.: 35%

## CCN(C)C=Nc1cc(C)c(Sc2cccc(OCC(F)(F)F)c2)cc1C [Compound 15]
Wheat plants [1]; 30 ppm
  Phytotoxicity % N.F.: 0%
Wheat plants [1]; 125 ppm
  Phytotoxicity % N.F.: 0%
Erysiphe graminis; 30 ppm
  Activity P5, NT: 100%
  Activity P5, T: 100%
Erysiphe graminis; 125 ppm
  Activity P5, NT: 100%
  Activity P5, T: 100%
Puccinia recondita; 30 ppm
  Activity P5, NT: 100%
  Activity P5, T: 100%
Puccinia recondita; 125 ppm
  Activity P5, NT: 100%
  Activity P5, T: 100%
Wheat plants [3]; 30 ppm
  Phytotoxicity % N.F.: 0%
Wheat plants [3]; 125 ppm
  Phytotoxicity % N.F.: 0%

## CCN(C)C=Nc1cc(C)c(Sc2cccc(OCC(F)(F)C(F)(F)F)c2)cc1C [Compound 23]
Wheat plants [1]; 30 ppm
  Phytotoxicity % N.F.: 0%
Wheat plants [1]; 125 ppm
  Phytotoxicity % N.F.: 0%
Erysiphe graminis; 30 ppm
  Activity P5, NT: 100%
  Activity P5, T: 100%
Erysiphe graminis; 125 ppm
  Activity P5, NT: 100%
  Activity P5, T: 100%
Puccinia recondita; 30 ppm
  Activity P5, NT: 100%
  Activity P5, T: 100%
Puccinia recondita; 125 ppm
  Activity P5, NT: 100%
  Activity P5, T: 100%
Wheat plants [3]; 30 ppm
  Phytotoxicity % N.F.: 0%
Wheat plants [3]; 125 ppm
  Phytotoxicity % N.F.: 0%

## Cc1cc(Oc2cccc(OC(F)(F)F)c2)c(C)cc1N=CN(C)C [CR-4, N,N-dimethyl-N′-[4-(3-trifluoromethoxyphenoxy)-2,5-xylyl]formamidine]
Wheat plants [1]; 30 ppm
  Phytotoxicity % N.F.: 20%
Wheat plants [1]; 125 ppm
  Phytotoxicity % N.F.: 30%
Erysiphe graminis; 30 ppm
  Activity P5, NT: 70%
  Activity P5, T: 75%
Erysiphe graminis; 125 ppm
  Activity P5, NT: 90%
  Activity P5, T: 95%
Puccinia recondita; 30 ppm
  Activity P5, NT: 65%
  Activity P5, T: 70%
Puccinia recondita; 125 ppm
  Activity P5, NT: 85%
  Activity P5, T: 90%
[2]
  leaf necrosis on crops: marked leaf necrosis
Wheat plants [3]; 30 ppm
  Phytotoxicity % N.F.: 15%
Wheat plants [3]; 125 ppm
  Phytotoxicity % N.F.: 30%

## CCN(C)C=Nc1cc(C)c(Sc2cccc(OCC(F)(F)C(F)F)c2)cc1C [Compound 19]
Wheat plants [1]; 30 ppm
  Phytotoxicity % N.F.: 0%
Wheat plants [1]; 125 ppm
  Phytotoxicity % N.F.: 0%
Erysiphe graminis; 30 ppm
  Activity P5, NT: 100%
  Activity P5, T: 100%
Erysiphe graminis; 125 ppm
  Activity P5, NT: 100%
  Activity P5, T: 100%
Puccinia recondita; 30 ppm
  Activity P5, NT: 100%
  Activity P5, T: 100%
Puccinia recondita; 125 ppm
  Activity P5, NT: 100%
  Activity P5, T: 100%
Wheat plants [3]; 30 ppm
  Phytotoxicity % N.F.: 0%
Wheat plants [3]; 125 ppm
  Phytotoxicity % N.F.: 0%

## CCN(C)C=Nc1cc(C)c(Sc2cccc(OC(F)(F)C(F)F)c2)cc1C [Compound 2, N-ethyl-N-methyl-N′-{4-[3-(1,1,2,2-tetrafluoroethoxy)phenylthio]-2,5-xylyl}formamidine]
Wheat plants [1]; 30 ppm
  Phytotoxicity % N.F.: 0%
Wheat plants [1]; 125 ppm
  Phytotoxicity % N.F.: 0%
Erysiphe graminis; 30 ppm
  Activity P5, NT: 100%
  Activity P5, T: 100%
Erysiphe graminis; 125 ppm
  Activity P5, NT: 100%
  Activity P5, T: 100%
Puccinia recondita; 30 ppm
  Activity P5, NT: 100%
  Activity P5, T: 100%
Puccinia recondita; 125 ppm
  Activity P5, NT: 100%
  Activity P5, T: 100%
Wheat plants [3]; 30 ppm
  Phytotoxicity % N.F.: 0%
Wheat plants [3]; 125 ppm
  Phytotoxicity % N.F.: 0%

## Cc1cc(Sc2cccc(C(F)(F)F)c2)c(C)cc1N=CN(C)C [CR-2, N,N-dimethyl-N′-[4-(3-trifluoromethylphenylthio)-2,5-xylyl]-formamidine]
Wheat plants [1]; 30 ppm
  Phytotoxicity % N.F.: 0%
Wheat plants [1]; 125 ppm
  Phytotoxicity % N.F.: 0%
Erysiphe graminis; 30 ppm
  Activity P5, NT: 65%
  Activity P5, T: 78%
Erysiphe graminis; 125 ppm
  Activity P5, NT: 80%
  Activity P5, T: 95%
Puccinia recondita; 30 ppm
  Activity P5, NT: 60%
  Activity P5, T: 68%
Puccinia recondita; 125 ppm
  Activity P5, NT: 90%
  Activity P5, T: 95%
Phytopathogenic fungi
  fungicidal activity: insufficient
Wheat plants [3]; 30 ppm
  Phytotoxicity % N.F.: 0%
Wheat plants [3]; 125 ppm
  Phytotoxicity % N.F.: 0%

## Cc1cc(Oc2cccc(OCC(F)(F)F)c2)c(C)cc1N=CN(C)C [CR-5, N,N-dimethyl-N′-{4-[3-(2,2,2-trifluoroethoxy)phenoxy]-2,5-xylyl}formamidine]
Wheat plants [1]; 30 ppm
  Phytotoxicity % N.F.: 15%
Wheat plants [1]; 125 ppm
  Phytotoxicity % N.F.: 25%
Erysiphe graminis; 30 ppm
  Activity P5, NT: 65%
  Activity P5, T: 70%
Erysiphe graminis; 125 ppm
  Activity P5, NT: 80%
  Activity P5, T: 90%
Puccinia recondita; 30 ppm
  Activity P5, NT: 60%
  Activity P5, T: 65%
Puccinia recondita; 125 ppm
  Activity P5, NT: 80%
  Activity P5, T: 85%
[2]
  leaf necrosis on crops: marked leaf necrosis
Wheat plants [3]; 30 ppm
  Phytotoxicity % N.F.: 20%
Wheat plants [3]; 125 ppm
  Phytotoxicity % N.F.: 30%

## Cc1cc(Oc2cccc(C(F)(F)F)c2)c(C)cc1N=CN(C)C [CR-1, N,N-dimethyl-N′-[4-(3-trifluoromethylphenoxy)-2,5-xylyl]-formamidine]
Wheat plants [1]; 30 ppm
  Phytotoxicity % N.F.: 14%
Wheat plants [1]; 125 ppm
  Phytotoxicity % N.F.: 26%
Erysiphe graminis; 30 ppm
  Activity P5, NT: 76%
  Activity P5, T: 90%
Erysiphe graminis; 125 ppm
  Activity P5, NT: 90%
  Activity P5, T: 100%
Puccinia recondita; 30 ppm
  Activity P5, NT: 70%
  Activity P5, T: 80%
Puccinia recondita; 125 ppm
  Activity P5, NT: 90%
  Activity P5, T: 100%
[2]
  leaf necrosis on crops: marked leaf necrosis
Wheat plants [3]; 30 ppm
  Phytotoxicity % N.F.: 15%
Wheat plants [3]; 125 ppm
  Phytotoxicity % N.F.: 25%

## CCN(C)C=Nc1cc(C)c(Sc2cccc(OC(F)F)c2)cc1C [Compound 1, N-ethyl-N-methyl-N′-[4-(3-difluoromethoxyphenylthio)-2,5-xylyl]formamidine]
Wheat plants [1]; 30 ppm
  Phytotoxicity % N.F.: 0%
Wheat plants [1]; 125 ppm
  Phytotoxicity % N.F.: 0%
Erysiphe graminis; 30 ppm
  Activity P5, NT: 100%
  Activity P5, T: 100%
Erysiphe graminis; 125 ppm
  Activity P5, NT: 100%
  Activity P5, T: 100%
Puccinia recondita; 30 ppm
  Activity P5, NT: 100%
  Activity P5, T: 100%
Puccinia recondita; 125 ppm
  Activity P5, NT: 100%
  Activity P5, T: 100%
Wheat plants [3]; 30 ppm
  Phytotoxicity % N.F.: 0%
Wheat plants [3]; 125 ppm
  Phytotoxicity % N.F.: 0%
